Where a name gives a salt, the structure may show the parent alone.

Sequence of ATM (Q13315 whole entry): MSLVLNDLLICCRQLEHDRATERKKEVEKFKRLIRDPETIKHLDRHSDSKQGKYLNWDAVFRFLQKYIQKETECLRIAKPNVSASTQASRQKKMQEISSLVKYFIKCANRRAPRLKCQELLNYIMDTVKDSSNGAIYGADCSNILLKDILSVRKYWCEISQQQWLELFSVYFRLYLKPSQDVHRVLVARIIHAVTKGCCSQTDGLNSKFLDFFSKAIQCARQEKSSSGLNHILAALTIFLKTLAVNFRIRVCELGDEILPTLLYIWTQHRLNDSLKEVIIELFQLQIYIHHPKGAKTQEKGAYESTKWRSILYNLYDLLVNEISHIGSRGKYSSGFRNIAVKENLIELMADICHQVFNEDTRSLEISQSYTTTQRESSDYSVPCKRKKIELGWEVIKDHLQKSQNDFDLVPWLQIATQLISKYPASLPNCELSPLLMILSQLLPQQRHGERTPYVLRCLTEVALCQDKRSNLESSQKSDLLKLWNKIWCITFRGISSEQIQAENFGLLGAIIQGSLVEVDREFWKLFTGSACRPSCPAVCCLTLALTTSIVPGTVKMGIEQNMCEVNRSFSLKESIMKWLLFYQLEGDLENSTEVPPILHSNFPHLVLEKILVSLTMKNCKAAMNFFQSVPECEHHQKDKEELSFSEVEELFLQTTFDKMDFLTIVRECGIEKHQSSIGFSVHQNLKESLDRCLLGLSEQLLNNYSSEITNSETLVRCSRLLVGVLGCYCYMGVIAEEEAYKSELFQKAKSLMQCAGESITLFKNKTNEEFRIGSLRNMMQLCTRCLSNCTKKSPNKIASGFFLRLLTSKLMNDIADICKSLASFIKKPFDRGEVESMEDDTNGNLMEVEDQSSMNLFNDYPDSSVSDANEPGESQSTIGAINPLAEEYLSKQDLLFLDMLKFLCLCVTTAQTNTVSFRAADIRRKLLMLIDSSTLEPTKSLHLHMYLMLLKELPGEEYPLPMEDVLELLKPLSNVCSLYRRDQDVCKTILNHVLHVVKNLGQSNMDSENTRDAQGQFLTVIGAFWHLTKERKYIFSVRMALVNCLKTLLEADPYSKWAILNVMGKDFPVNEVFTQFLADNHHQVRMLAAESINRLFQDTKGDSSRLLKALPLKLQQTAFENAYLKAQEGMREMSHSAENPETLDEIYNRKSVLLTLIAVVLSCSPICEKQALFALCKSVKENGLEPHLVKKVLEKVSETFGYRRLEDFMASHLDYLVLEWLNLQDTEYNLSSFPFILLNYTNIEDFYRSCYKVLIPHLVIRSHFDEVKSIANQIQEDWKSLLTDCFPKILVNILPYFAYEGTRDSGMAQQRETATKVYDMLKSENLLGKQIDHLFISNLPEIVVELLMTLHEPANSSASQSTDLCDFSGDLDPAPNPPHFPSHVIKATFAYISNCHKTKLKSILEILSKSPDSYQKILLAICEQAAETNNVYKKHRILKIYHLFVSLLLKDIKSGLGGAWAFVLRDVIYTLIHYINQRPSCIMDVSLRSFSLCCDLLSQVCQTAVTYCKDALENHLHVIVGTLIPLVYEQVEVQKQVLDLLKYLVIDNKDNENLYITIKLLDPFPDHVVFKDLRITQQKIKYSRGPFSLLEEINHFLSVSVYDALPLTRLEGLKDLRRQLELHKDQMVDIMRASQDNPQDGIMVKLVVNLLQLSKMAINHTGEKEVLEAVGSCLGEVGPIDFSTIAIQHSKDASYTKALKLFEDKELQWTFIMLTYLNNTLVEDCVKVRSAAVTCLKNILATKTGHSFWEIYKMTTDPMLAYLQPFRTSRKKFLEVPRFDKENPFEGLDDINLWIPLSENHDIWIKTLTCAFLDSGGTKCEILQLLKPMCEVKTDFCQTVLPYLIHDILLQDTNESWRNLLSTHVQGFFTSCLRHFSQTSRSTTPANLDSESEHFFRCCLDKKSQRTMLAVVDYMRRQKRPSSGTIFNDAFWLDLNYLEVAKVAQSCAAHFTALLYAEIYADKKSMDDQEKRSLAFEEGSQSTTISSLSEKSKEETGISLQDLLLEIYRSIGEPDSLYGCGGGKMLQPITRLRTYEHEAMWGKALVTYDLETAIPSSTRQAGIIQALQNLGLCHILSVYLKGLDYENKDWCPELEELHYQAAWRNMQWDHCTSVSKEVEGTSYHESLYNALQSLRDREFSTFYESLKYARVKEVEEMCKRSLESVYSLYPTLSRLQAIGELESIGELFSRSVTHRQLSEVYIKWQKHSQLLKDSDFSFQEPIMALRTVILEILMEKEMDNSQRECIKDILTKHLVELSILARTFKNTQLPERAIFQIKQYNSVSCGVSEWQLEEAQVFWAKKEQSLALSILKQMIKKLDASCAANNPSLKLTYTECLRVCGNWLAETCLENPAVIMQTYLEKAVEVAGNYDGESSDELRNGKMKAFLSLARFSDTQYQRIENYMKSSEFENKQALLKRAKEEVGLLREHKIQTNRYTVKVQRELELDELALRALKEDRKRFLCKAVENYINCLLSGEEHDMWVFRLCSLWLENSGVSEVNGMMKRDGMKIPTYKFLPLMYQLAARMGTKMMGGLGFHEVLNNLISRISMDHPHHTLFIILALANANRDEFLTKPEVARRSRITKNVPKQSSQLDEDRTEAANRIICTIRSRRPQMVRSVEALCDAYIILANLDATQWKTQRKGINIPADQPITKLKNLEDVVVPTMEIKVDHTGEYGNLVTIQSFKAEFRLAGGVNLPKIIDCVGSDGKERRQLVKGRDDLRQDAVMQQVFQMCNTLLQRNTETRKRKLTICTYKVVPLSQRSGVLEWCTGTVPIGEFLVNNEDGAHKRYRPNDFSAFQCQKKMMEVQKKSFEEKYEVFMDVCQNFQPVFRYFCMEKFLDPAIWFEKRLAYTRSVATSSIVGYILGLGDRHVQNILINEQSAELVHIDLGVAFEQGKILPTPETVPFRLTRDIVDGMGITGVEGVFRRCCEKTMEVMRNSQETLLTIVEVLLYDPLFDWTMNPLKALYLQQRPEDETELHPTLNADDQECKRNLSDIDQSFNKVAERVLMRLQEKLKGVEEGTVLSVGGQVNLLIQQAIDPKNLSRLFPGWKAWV

The target in this test is ATM (Homo sapiens (Human), UniProt Q13315). The test can be described thus: ATM in Cell Western Assay (pKAP1 in etoposide-treated MCF-7 cells). The test is classed as cell-based. The settings on record: MCF-7 cells, etoposide 100 μM, 1 hr, pKAP1 readout. The procedure, abridged:
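After paraformaldehyde fixation and Triton X-100 permeabilization, immunostained plates were read by infrared scanning (ODYSSEY CLx). Compound was given as 10 doses, 3-fold dilutions from a 1 μM final top concentration.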
By IC50 is commonly meant the point on the concentration scale where inhibition reaches its midpoint. High values mean a need for much substance, low ones inhibition by little substance. With `CC(CCOc1ncc(-c2ccc3ncc4c(c3c2)C2(CCC2)C(=O)N4C)cc1NS(C)(=O)=O)N(C)C` (centres unmarked) [Example 292, N-(2-(3-(Dimethylamino)butoxy)-5-(3′-methyl-2′-oxo-2′,3′-dihydrospiro [cyclobutane-1,1′-pyrrolo[2,3-c]quinolin]-8′-yl)pyridin-3-yl)methanesulfonamide], the IC50 lay in the range of 1 to 100 nM. The figure for `CN1C(=O)C2(CCC2)c2c1cnc1ccc(-c3cnc(OCC(CO)N(C)C)c(NS(C)(=O)=O)c3)cc21` (centres unmarked) [Example 296, N-(2-(2-(dimethylamino)-3-hydroxypropoxy)-5-(3′-methyl-2′-oxo-2′,3′-dihydrospiro[cyclobutane-1,1′-pyrrolo[2,3-c]quinolin]-8′-yl)pyridin-3-yl)methanesulfonamide] is greater than 100 nM; for `CN1C(=O)C2(CCC2)c2c1cnc1ccc(-c3cnc(OCCCN4CCCC(F)(F)C4)c(NS(C)(=O)=O)c3)cc21` [Example 298, N-(2-(3-(3,3-Difluoropiperidin-1-yl)propoxy)-5-(3′-methyl-2′-oxo-2′,3′-dihydrospiro[cyclobutane-1,1′-pyrrolo[2,3-c]quinolin]-8′-yl)pyridin-3-yl)methanesulfonamide] it is greater than 100 nM; for `CN1C(=O)C2(CCC2)c2c1cnc1ccc(-c3cnc(OCCCN4CCNCC4)c(NS(C)(=O)=O)c3)cc21` [Example 300, N-(5-(3′-Methyl-2′-oxo-2′,3′-dihydrospiro[cyclobutane-1,1′-pyrrole[2,3-c]quinolin]-8′-yl)-2-(3-(piperazin-1-yl)propoxy)pyridin-3-yl) methanesulfonamide] it is 1 to 100 nM. `CN1C(=O)C2(CCC2)c2c1cnc1ccc(-c3cnc(OCCCN4CCCCC4)c(NS(=O)(=O)CF)c3)cc21` [Example 301, 1-Fluoro-N-(5-(3′-methyl-2′-oxo-2′,3′-dihydrospiro[cyclobutane-1,1′-pyrrolo[2,3-c]quinolin]-8-yl)-2-(3-(piperidin-1-yl)propoxy)pyridin-3-yl) methanesulfonamide]: the IC50 fell in the range of 1 to 100 nM. The figure for `CN1C(=O)C2(CCC2)c2c1cnc1ccc(-c3cnc(OCCCN4CC5CC(C4)O5)c(NS(C)(=O)=O)c3)cc21` [Example 303, N-(2-(3-(6-Oxa-3-azabicyclo[3.1.1]heptan-3-yl)propoxy)-5-(3′-methyl-2′-oxo-2′,3′-dihydrospiro[cyclobutane-1,1′-pyrrolo[2,3-c]quinolin]-8′-yl)pyridin-3-yl)methanesulfonamide] is greater than 100 nM. The molecule `CN1C(=O)C2(CCC2)c2c1cnc1ccc(-c3cnc(OCCCN4CC(F)(F)C4)c(NS(C)(=O)=O)c3)cc21` [Example 307, N-(2-(3-(3,3-Difluoroazetidin-1-yl)propoxy)-5-(3′-methyl-2′-oxo-2′,3′-dihydrospiro[cyclobutane-1,1′-pyrrolo[2,3-c]quinolin]-8′-yl)pyridin-3-yl) methanesulfonamide formate] registered an IC50 greater than 100 nM.

Take `CCN1C(=O)C2(CCC2)c2c1cnc1ccc(-c3cnc(OCCNC)c(NS(C)(=O)=O)c3)cc21` [Example 308, N-(5-(3′-Ethyl-2′-oxo-2′,3′-dihydrospiro[cyclobutane-1,1′-pyrrolo[2,3-c]quinolin]-8′-yl)-2-(2-(methylamino)ethoxy)pyridin-3-yl) methanesulfonamide hydrochloride]: the concentration for half-maximal inhibition (IC50) lay within 1 to 100 nM. With `CN1C(=O)C2(CCC2)c2c1cnc1ccc(-c3cnc(OCC4CNC4)c(NS(C)(=O)=O)c3)cc21` [Example 310, N-(2-(Azetidin-3-ylmethoxy)-5-(3′-methyl-2′-oxo-2′,3′-dihydrospiro[cyclobutane-1,1′-pyrrole[2,3-c]quinolin]-8′-yl)pyridin-3-yl) methanesulfonamide hydrochloride], the 50% inhibitory concentration (IC50) is greater than 100 nM.

In turn, `CN1C(=O)C2(CCC2)c2c1cnc1cc(F)c(-c3cnc(N4CC(N(C)C)C4)c(NS(=O)(=O)N4CCOCC4)c3)cc21` [Example 312, N-(2-(3-(Dimethylamino)azetidin-1-yl)-5-(7′-fluoro-3′-methyl-2′-oxo-2′,3′-dihydrospiro[cyclobutane-1,1′-pyrrolo[2,3-c]quinolin]-8′-yl)pyridin-3-yl)morpholine-4-sulfonamide hydrochloride] returned an IC50 of 1 to 100 nM.

The molecule `CCN(C)C1CN(c2ncc(-c3cc4c5c(cnc4cc3F)N(C)C(=O)C53CCC3)cc2NS(C)(=O)=O)C1` [Example 313, N-(2-(3-(Ethyl(methyl)amino)azetidin-1-yl)-5-(7′-fluoro-3′-methyl-2′-oxo-2′,3′-dihydrospiro[cyclobutane-1,1′-pyrrolo[2,3-c]quinolin]-8′-yl)pyridin-3-yl)methanesulfonamide hydrochloride] came in with a concentration for half-maximal inhibition (IC50) of 1 to 100 nM. Consider `COCCN(C)C1CN(c2ncc(-c3cc4c5c(cnc4cc3F)N(C)C(=O)C53CCC3)cc2NS(C)(=O)=O)C1` [Example 314, N-(5-(7′-Fluoro-3′-methyl-2′-oxo-2′,3′-dihydrospiro[cyclobutane-1,1′-pyrrolo[2,3-c]quinolin]-8′-yl)-2-(3((2-methoxyethyl)(methyl)amino)azetidin-1-yl)pyridin-3-yl)methanesulfonamide hydrochloride], for which the IC50 was 1 to 100 nM. The figure for `CN1C(=O)C2(CCC2)c2c1cnc1ccc(-c3cnc(N4CC(N5CCCCC5)C4)c(NS(C)(=O)=O)c3)cc21` [Example 321, N-(5-(3′-Methyl-2′-oxo-2′,3′-dihydrospiro[cyclobulane-1,1′-pyrrolo[2,3-c]quinolin]-8′-yl)-2-(3-(piperidin-1-yl)azetidin-1-yl)pyridin-3-yl)methanesulfonamide hydrochloride] is 1 to 100 nM. The figure for `CN1C(=O)C2(CCC2)c2c1cnc1cc(F)c(-c3cnc(N4CC(N(C)C)C4)c(NS(=O)(=O)c4ccccc4F)c3)cc21` [Example 322, N-(2-(3-(Dimethylamino)azetidin-1-yl)-5-(7′-fluoro-3′-methyl-2′-oxo-2′,3′-dihydrospiro[cyclobulane-1,1′-pyrrolo[2,3-c]quinolin]-8′-yl)pyridin-3-yl)-2-fluorobenzenesulfonamide hydrochloride] is 1 to 100 nM. With `CN1C(=O)C2(CCC2)c2c1c(N)nc1ccc(-c3cnc(N4CC(N(C)C)C4)c(NS(C)(=O)=O)c3)cc21` [Example 327, N-(5-(4′-Amino-3′-methyl-2′-oxo-2′,3′-dihydrospiro[cyclobutane-1,1′-pyrrolo[2,3-c]quinolin]-8′-yl)-2-(3-(dimethylamino)azetidin-1-yl)pyridin-3-yl)methanesulfonamide hydrochloride], the half-maximal inhibitory concentration (IC50) was greater than 100 nM. Turning to `CC(C)NC1CN(c2ncc(-c3cc4c5c(cnc4cc3F)N(C)C(=O)C53CCC3)cc2NS(C)(=O)=O)C1` [Example 328, N-(5-(7′-Fluoro-3′-methyl-2′-oxo-2′,3′-dihydrospiro[cyclobutane-1,1′-pyrrolo[2,3-c]quinolin]-8′-yl)-2-(3-(isopropylamino)azetidin-1-yl)pyridin-3-yl)methanesulfonamide hydrochloride], the IC50 lay in the range of 1 to 100 nM. The molecule `Cc1cc2ncc3c(c2cc1-c1cnc(N2CC(N(C)C)C2)c(NS(C)(=O)=O)c1)C1(CCC1)C(=O)N3C` [Example 335, N-(5-(3′-,7′-Dimethyl-2′-oxo-2′,3′-dihydrospiro[cyclobutane-1,1′-pyrrolo[2,3-c]quinolin]-8′-yl)-2-(3-(dimethylamino)azetidin-1-yl)pyridin-3-yl)methanesulfonamide] displayed an IC50 of 1 to 100 nM.

Source of the values: patent publication US12187742B2 (XRAD Therapeutics, Inc., priority 2018, dated 2025).
